One data set addresses T1, Factor D (Homo sapiens, UniProt P00746).
T1 construct: purchased Comptech (Tyler TX)
As to the kind of experiment: BLI biosensor assay of Factor D cleavage of Factor B, anti-Bb antibody binding. The format is biochemical. Background: In BLI a coated tip is dipped into the sample, and binding shifts an interference pattern.

Another data set relates to C5 convertase. As to the kind of experiment: C5 convertase activity on bio-C3b streptavidin-coated spheres, C5a measured with MSD (ECL) assay. In kind it is biochemical. The settings on record: for ECL signal (amount of C5a produced by C5 convertase): C5 100 nM, 60 minutes. On the procedure:
The bio-C3b binding to streptavidin was performed in a 2.0 ml micro-centrifuge tube. Two hundred and forty […] of Spherotech beads, […] diameter, streptavidin coated spheres were first washed by centrifugation with 300 μL of 10 mM Tris, pH 8, and then resuspended in 200 μL of 10 mM Tris, pH 8. The spheres were incubated with bio-C3b or C3b at a concentration of 320 nM. Spheres were suspended by gentle shaking at 1350 RPM for 20 minutes at room temperature, and collected by centrifugation at 16 RCF for 10 minutes. The residual supernatant was removed and the beads are then washed to remove residual unbound bio-C3b.
C5 convertase was formed on the spheres by incubating the bio-C3b spheres with a Convertase Solution that included components of the AP, a divalent cation and buffer. The Convertase Solution consisted of Factor D, (10 nM), Factor B (400 nM), and NiCl2 (200 μM) in 10 mM Tris, pH 8.0. The spheres were suspended by gentle shaking at 1350 RPM for 20 minutes at 37° C. The spheres were centrifuged at 16×g (RCF) for 10 minutes, the supernatant is removed, and the spheres are resuspended in 1.2 ml of 10 mM Tris pH 8, 1 mM EDTA to a final concentration of 200 μg/ml.
Formation of C5a was accomplished by incubating C5, and the spheres in a Reaction Solution that included a divalent cation. The Reaction Solution was prepared by transferring to a microplate well: (i) […] of spheres with C5 convertase in 10 μl of the Convertase Solution; (ii) […] of a 500 μM NiCl2 solution; and (iii) […] of a 250 nM solution of C5 (5 pmoles). […]
Following the incubation, the reaction was stopped by adding 10 μL of a 500 mM EDTA in 10 mM Tris, pH=8.0. (Total Volume=60 μl)
The amount of C5a in the Reaction Solution was measured with an MSD assay, similar to an ELISA. The neo-epitope anti-C5a antibody, BNJ383, captured soluble C5a, binding it to a well in a microplate. BNJN383 has a high affinity for C5a but a low affinity for C5. The detection reagent was a mouse anti-C5a antibody that binds the C5a captured on the plate, and a SULFO-TAG™ modified anti-mouse secondary antibody that bound the mouse antibody, and generated an ECL signal.
To wells of a high binding 96-well microplate (MSD Catalog No. L15XB-3) was added BNJ383 (0.3 pmoles,)[…]/mL in 25 μL of a carbonate-bicarbonate buffer at pH 9.4. The microplate was sealed and incubated at 37° C. for 60 minutes. […]
The wells were sealed with a foil seal and incubated in the dark for 30 minutes. […] One hundred and fifty μL of 2X MSD Read Buffer containing tripropylamine as an electron carrier was added to the wells using a negative pipetting technique. The microplate was read on an MSD imager to measure the ECL signal generated by the SULFO-TAG™ affixed to the goat secondary antibody. […]

Experimental findings from patent publication US20230265481A1, “METHOD FOR MEASURING THE PROTEASE ACTIVITY OF C3 AND C5 CONVERTASE OF THE ALTERNATIVE COMPLEMENT PATHWAY” (Alexion Pharmaceuticals, Inc., priority 2015, published 2023) are described below.

T1 sequence (P00746 26-253): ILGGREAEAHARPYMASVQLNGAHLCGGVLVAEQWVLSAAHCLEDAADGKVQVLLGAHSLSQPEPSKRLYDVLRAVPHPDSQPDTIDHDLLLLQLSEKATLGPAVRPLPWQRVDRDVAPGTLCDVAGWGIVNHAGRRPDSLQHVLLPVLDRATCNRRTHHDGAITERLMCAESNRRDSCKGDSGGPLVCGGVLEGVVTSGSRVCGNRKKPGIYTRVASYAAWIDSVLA

As to `O=c1oc(Cl)c(Cl)c2ccccc12` [DCIC, 3,4-Dichloroisocoumarin], the “Effect on Factor D activity” value at Factor D (DCIC 23 μM and 35 μM) was “minimal effect”; on Factor D (DCIC 178 μM, 267 μM and 400 μM) it was “maximally inhibited”.

Take “OmCI: tick saliva complement inhibitor, a C5 binding protein that reduces access of the C5 convertase to the C5 cleavage site”: in the data set with C5 convertase (OmCI 50 nM), the “Effect on convertase activity” value is reported as “essentially no effect” and the “ECL signal (amount of C5a produced by C5 convertase)” value is listed as 40,000. In the data set with C5 convertase (OmCI 100 nM), the “drop of ECL signal” value was 8 fold and the “ECL signal (amount of C5a produced by C5 convertase)” value came to 5000.
